According to patent US12649744B2, “N-(pyridin-2-yl)-6,7,8,9-tetrahydro-5h-5,8-epiminocyclohepta[c]pyridine-10-carboxamide derivatives and similar compounds as GPR65 modulators for the treatment of cancer” (PATHIOS THERAPEUTICS LIMITED, priority 2020, dated 2026):
pIC50: −log10 of the molar value. Where two headings read alike, the source gives them in different places.

Biological target: human recombinant GPR65 (Homo sapiens, UniProt Q8IYL9)
Test: Human GPR65 cAMP HTRF antagonist assay
Format: cell-based
Text: The “Human GPR65 cyclic adenosine monophosphate (cAMP) Homogeneous Time Resolved Fluorescence (HTRF) antagonist assay”, or simply “cAMP assay”, as described below, can be used to measure the potency of GPR65 modulators, which is expressed as the concentration of compound required to reduce the increase in cAMP concentration upon GPR65 activation by 50% (i.e. an IC50).
Human GPR65 Cyclic Adenosine Monophosphate (cAMP) Homogeneous Time Resolved Fluorescence (HTRF) Antagonist Assay Procedure
IC50 data was obtained by the following procedure:
1321N1 human astrocytoma cells stably expressing human recombinant GPR65 (1321N1-hrGPR65 cells, EuroscreenFast) were cultured according to the vendor's instructions.
Compounds were tested for their ability to antagonise GPR65, through measuring the concentration of cytoplasmic cAMP following treatment of the cells at a pH of 7.2 to activate GPR65 signalling and addition of the compound to be tested. The extent to which the expected rise in cAMP concentration upon GPR65 activation was suppressed by the added compound is indicative of its potency. The assay was carried out according to EuroscreenFast assay methodology as follows.
On the day of the assay, test compounds were added to 384-well, low volume, white microtiter plates by acoustic dispensing. KRH buffer (5 mM KCl, 1.25 mM MgSO4, 124 mM NaCl, 25 mM HEPES, 13.3 mM Glucose, 1.25 mM KH2PO4 and 1.45 mM CaCl2) was adjusted to pH 6.5, pH 7.6 and pH 8.4 by adding NaOH. 1321N1-hGPR65 cells were rapidly thawed and diluted in KRH, pH 7.6 prior to centrifugation at 300×g for 5 min and resuspension in assay buffer (KRH, pH 7.6, supplemented with 1 mM 3-isobutyl-1-methylxanthine (IBMX) and 200 μM ethylenediaminetetraacetic acid (EDTA)). Cells were added to assay plates at a density of 2,000 cells per well in a volume of 5 μl. Assay plates were briefly centrifuged at 100×g and then incubated at room temperature for 30 min. Cells were stimulated by the addition of 5 μL KRH, pH 6.5, to achieve an assay pH of 7.2, while control wells received 5 μl KRH, pH 8.4 to achieve an assay pH of 7.9. Assay plates were briefly centrifuged at 100×g and then incubated at room temperature for 30 min.
Accumulation of cAMP was detected by cAMP HTRF kit (Cisbio). d2-labeled cAMP and cryptate-labeled anti-cAMP antibody in Lysis and Detection Buffer (Cisbio) were added to assay plates, and the plates were incubated at room temperature for 1 h. HTRF measurements were performed using a Pherastar FSX instrument. Acceptor and donor emission signals were measured at 665 nm and 620 nm, respectively, and HTRF ratios were calculated as signal665 nm/signal620nm×10^4. Data were normalised to high and low control values and fitted with 4-parameter logistic regression to determine hGPR65 IC50 values for the test compounds, which are shown in Table 1.

[1] = 1321N1-hrGPR65 cells, assay pH of 7.2, cAMP HTRF, read-out: hGPR65 IC50

human recombinant GPR65, sequence (Q8IYL9 whole entry): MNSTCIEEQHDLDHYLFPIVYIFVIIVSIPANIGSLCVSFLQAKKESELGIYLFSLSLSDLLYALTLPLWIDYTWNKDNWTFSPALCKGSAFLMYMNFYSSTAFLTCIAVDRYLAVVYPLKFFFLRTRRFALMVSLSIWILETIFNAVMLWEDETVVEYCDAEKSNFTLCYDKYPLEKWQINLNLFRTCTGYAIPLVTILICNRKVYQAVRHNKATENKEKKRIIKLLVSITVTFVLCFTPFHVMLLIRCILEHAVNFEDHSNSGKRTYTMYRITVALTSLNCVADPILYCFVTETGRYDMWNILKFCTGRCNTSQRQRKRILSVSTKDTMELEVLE

O=C(Nc1cnc(C(F)(F)F)cn1)N1C2CCC1c1cncnc1C2 (racemic) [Compound 6, (±)-N-(5-(trifluoromethyl)pyrazin-2-yl)-6,7,8,9-tetrahydro-5H-5,8-epiminocyclohepta-[d]pyrimidine-10-carboxamide]
pIC50 [1]: < 5.30

O=C(Nc1ccc(Oc2ccccc2)nc1)N1C2CCC1c1ccnc(F)c1C2 (racemic) [Compound 8, (±)-1-fluoro-N-(6-phenoxypyridin-3-yl)-6,7,8,9-tetrahydro-5H-5,8-epiminocyclohepta-[c]pyridine-10-carboxamide]
pIC50 [1]: 5.30 to 6.30

O=C(Nc1cncc(Cl)c1)N1C2CCC1c1ccnc(F)c1C2 (racemic) [Compound 9, (±)-N-(5-chloropyridin-3-yl)-1-fluoro-6,7,8,9-tetrahydro-5H-5,8-epiminocyclohepta-[c]pyridine-10-carboxamide]
pIC50: > 6.30

O=C(Nc1cc(Cl)c(Cl)cn1)N1C2CCC1c1c[nH]c(=O)c(F)c1C2 (racemic) [Compound 11, (±)-N-(4,5-dichloropyridin-2-yl)-4-fluoro-3-oxo-3,5,6,7,8,9-hexahydro-2H-6,9-epiminocyclohepta[c]pyridine-10-carboxamide]
pIC50: > 6.30

O=C(Nc1cc(Cl)c(C(F)(F)F)cn1)N1C2CCC1c1cncnc1C2 (racemic) [Compound 28, (±)-N-(4-chloro-5-(trifluoromethyl)pyridin-2-yl)-6,7,8,9-tetrahydro-5H-5,8-epiminocyclo-hepta[d]pyrimidine-10-carboxamide]
pIC50 [1]: 5.30 to 6.30

O=C(Nc1cc(Cl)c(C(F)(F)F)cn1)N1[C@H]2CC[C@@H]1c1ccnc(F)c1C2 [Compound 1, (5R,8S)-N-(4-chloro-5-(trifluoromethyl)pyridin-2-yl)-1-fluoro-6,7,8,9-tetrahydro-5H-5,8-epiminocyclohepta[c]pyridine-10-carboxamide]
pIC50 [1]: > 6.30

O=C(Nc1cc(Cl)c(Cl)cn1)N1[C@H]2CC[C@@H]1c1ccnc(F)c1C2 [Compound 2, (5R,8S)-N-(4,5-dichloropyridin-2-yl)-1-fluoro-6,7,8,9-tetrahydro-5H-5,8-epiminocyclohepta[c]pyridine-10-carboxamide]
pIC50 [1]: > 6.30

O=C(Nc1ccc(Cl)c(Cl)n1)N1[C@H]2CC[C@@H]1c1ccnc(F)c1C2 [Compound 3, (5R,8S)-N-(5,6-dichloropyridin-2-yl)-1-fluoro-6,7,8,9-tetrahydro-5H-5,8-epiminocyclohepta[c]pyridine-10-carboxamide]
pIC50 [1]: 5.30 to 6.30

O=C(Nc1cc(Cl)c(Cl)cn1)N1[C@H]2CC[C@@H]1c1c[nH]c(=O)cc1C2 [Compound 4, (6S,9R)-N-(4,5-dichloropyridin-2-yl)-3-oxo-3,5,6,7,8,9-hexahydro-2H-6,9-epiminocyclo-hepta[c]pyridine-10-carboxamide]
pIC50 [1]: > 6.30

O=C(Nc1ccc(Cl)c(Cl)n1)N1[C@H]2CC[C@@H]1c1c[nH]c(=O)cc1C2 [Compound 5, (6S,9R)-N-(5,6-dichloropyridin-2-yl)-3-oxo-3,5,6,7,8,9-hexahydro-2H-6,9-epiminocyclo-hepta[c]pyridine-10-carboxamide]
pIC50 [1]: < 5.30

O=C(Nc1ccc2nc(C(F)(F)F)ccc2c1)N1[C@H]2CC[C@@H]1c1c[nH]c(=O)cc1C2 [Compound 10, (6S,9R)-3-oxo-N-(2-(trifluoromethyl)quinolin-6-yl)-3,5,6,7,8,9-hexahydro-2H-6,9-epiminocyclohepta[c]pyridine-10-carboxamide]
pIC50 [1]: > 6.30

O=C(Nc1cnc(Cl)c(Cl)c1)N1[C@H]2CC[C@@H]1c1c[nH]c(=O)cc1C2 [Compound 13, (6S,9R)-N-(5,6-dichloropyridin-3-yl)-3-oxo-3,5,6,7,8,9-hexahydro-2H-6,9-epiminocyclo-hepta[c]pyridine-10-carboxamide]
pIC50 [1]: > 6.30

O=C(Nc1cc(C(F)(F)F)ncc1F)N1[C@H]2CC[C@@H]1c1c[nH]c(=O)cc1C2 [Compound 14, (6S,9R)-N-(5-fluoro-2-(trifluoromethyl)pyridin-4-yl)-3-oxo-3,5,6,7,8,9-hexahydro-2H-6,9-epiminocyclohepta[c]pyridine-10-carboxamide]
pIC50 [1]: 5.30 to 6.30

O=C(Nc1cnc(-n2nccn2)c(Cl)c1)N1[C@H]2CC[C@@H]1c1ccnc(F)c1C2 [Compound 15, (5R,8S)-N-(5-chloro-6-(2H-1,2,3-triazol-2-yl)pyridin-3-yl)-1-fluoro-6,7,8,9-tetrahydro-5H-5,8-epiminocyclohepta[c]pyridine-10-carboxamide]
pIC50 [1]: 5.30 to 6.30

O=C(Nc1cnc(Cl)cc1F)N1[C@H]2CC[C@@H]1c1ccnc(F)c1C2 [Compound 16, (5R,8S)-N-(6-chloro-4-fluoropyridin-3-yl)-1-fluoro-6,7,8,9-tetrahydro-5H-5,8-epiminocyclohepta[c]pyridine-10-carboxamide]
pIC50 [1]: 5.30 to 6.30

O=C(Nc1cc(Cl)c(C(F)(F)F)cn1)N1[C@H]2CC[C@@H]1c1c[nH]c(=O)cc1C2 [Compound 17, (6S,9R)-N-(4-chloro-5-(trifluoromethyl)pyridin-2-yl)-3-oxo-3,5,6,7,8,9-hexahydro-2H-6,9-epiminocyclohepta[c]pyridine-10-carboxamide]
pIC50 [1]: > 6.30

O=C(Nc1cc(C(F)(F)F)ncc1F)N1[C@H]2CC[C@@H]1c1ccnc(F)c1C2 [Compound 18, (5R,8S)-1-fluoro-N-(5-fluoro-2-(trifluoromethyl)pyridin-4-yl)-6,7,8,9-tetrahydro-5H-5,8-epiminocyclohepta[c]pyridine-10-carboxamide]
pIC50 [1]: 5.30 to 6.30

O=C(Nc1ccc(C(F)(F)F)cn1)N1[C@H]2CC[C@@H]1c1ccnc(F)c1C2 [Compound 19, (5R,8S)-1-fluoro-N-(5-(trifluoromethyl)pyridin-2-yl)-6,7,8,9-tetrahydro-5H-5,8-epiminocyclohepta[c]pyridine-10-carboxamide]
pIC50 [1]: > 6.30

O=C(Nc1nc(Cl)c(Cl)cc1F)N1[C@H]2CC[C@@H]1c1ccnc(F)c1C2 [Compound 20, (5R,8S)-N-(5,6-dichloro-3-fluoropyridin-2-yl)-1-fluoro-6,7,8,9-tetrahydro-5H-5,8-epiminocyclohepta[c]pyridine-10-carboxamide]
pIC50 [1]: 5.30 to 6.30

Cc1nonc1NC(=O)N1[C@H]2CC[C@@H]1c1ccnc(F)c1C2 [Compound 21, (5R,8S)-1-fluoro-N-(4-methyl-1,2,5-oxadiazol-3-yl)-6,7,8,9-tetrahydro-5H-5,8-epiminocyclohepta[c]pyridine-10-carboxamide]
pIC50 [1]: 5.30 to 6.30

O=C(Nc1noc(-c2ccccc2)n1)N1[C@H]2CC[C@@H]1c1ccnc(F)c1C2 [Compound 22, (5R,8S)-1-fluoro-N-(5-phenyl-1,2,4-oxadiazol-3-yl)-6,7,8,9-tetrahydro-5H-5,8-epiminocyclohepta[c]pyridine-10-carboxamide]
pIC50 [1]: > 6.30

O=C(Nc1nnc(C(F)(F)F)s1)N1[C@H]2CC[C@@H]1c1ccnc(F)c1C2 [Compound 23, (5R,8S)-1-fluoro-N-(5-(trifluoromethyl)-1,3,4-thiadiazol-2-yl)-6,7,8,9-tetrahydro-5H-5,8-epiminocyclohepta[c]pyridine-10-carboxamide]
pIC50 [1]: > 6.30

O=C(Nc1nnc(-c2ccncc2)s1)N1[C@H]2CC[C@@H]1c1ccnc(F)c1C2 [Compound 24, (5R,8S)-1-fluoro-N-(5-(pyridin-4-yl)-1,3,4-thiadiazol-2-yl)-6,7,8,9-tetrahydro-5H-5,8-epiminocyclohepta[c]pyridine-10-carboxamide]
pIC50 [1]: 5.30 to 6.30

O=C(Nc1ncc(C(F)(F)F)cn1)N1[C@H]2CC[C@@H]1c1ccnc(F)c1C2 [Compound 25, (5R,8S)-1-fluoro-N-(5-(trifluoromethyl)pyrimidin-2-yl)-6,7,8,9-tetrahydro-5H-5,8-epiminocyclohepta[c]pyridine-10-carboxamide]
pIC50 [1]: 5.30 to 6.30

CCc1nnc(NC(=O)N2[C@H]3CC[C@@H]2c2ccnc(F)c2C3)s1 [Compound 26, (5R,8S)-N-(5-ethyl-1,3,4-thiadiazol-2-yl)-1-fluoro-6,7,8,9-tetrahydro-5H-5,8-epiminocyclohepta[c]pyridine-10-carboxamide]
pIC50 [1]: 5.30 to 6.30

O=C(Nc1cc2cn(C(F)F)nc2cn1)N1[C@H]2CC[C@@H]1c1ccnc(F)c1C2 [Compound 27, (5R,8S)-N-(2-(difluoromethyl)-2H-pyrazolo[3,4-c]pyridin-5-yl)-1-fluoro-6,7,8,9-tetrahydro-5H-5,8-epiminocyclohepta[c]pyridine-10-carboxamide]
pIC50 [1]: < 5.30
